Experimental data from article PMC6934184, “Selective DNA-PKcs inhibition extends the therapeutic index of localized radiotherapy and chemotherapy” (The Journal of Clinical Investigation, 2019).

Molecular target: T1, AKT1 (PKB alpha) (Homo sapiens, UniProt P31749)
T1 construct: purchased Thermo Fisher Scientific (Life Technologies) SelectScreen
Assay: SelectScreen Z'LYTE
Type: biochemical
How it was run: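 SelectScreen broad panel; activity (Z'LYTE, Adapta) plus binding formats. ATP: Km app for CSF1R Z'LYTE; 10 for CAMK1 Adapta. Readout = % per kinase.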

T1 sequence (P31749 whole entry): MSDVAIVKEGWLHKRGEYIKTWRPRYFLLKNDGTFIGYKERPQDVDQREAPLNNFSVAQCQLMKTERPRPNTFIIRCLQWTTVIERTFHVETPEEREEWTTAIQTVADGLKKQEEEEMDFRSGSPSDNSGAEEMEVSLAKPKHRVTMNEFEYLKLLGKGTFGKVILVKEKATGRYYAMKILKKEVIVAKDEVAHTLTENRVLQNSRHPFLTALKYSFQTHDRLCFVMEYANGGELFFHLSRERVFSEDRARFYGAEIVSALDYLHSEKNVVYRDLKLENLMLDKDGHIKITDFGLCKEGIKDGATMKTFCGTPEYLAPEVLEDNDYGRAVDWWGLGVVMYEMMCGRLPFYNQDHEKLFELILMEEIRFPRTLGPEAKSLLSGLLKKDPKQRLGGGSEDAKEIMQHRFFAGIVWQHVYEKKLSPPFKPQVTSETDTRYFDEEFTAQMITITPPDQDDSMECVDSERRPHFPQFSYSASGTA

SMILES: CN(C(=O)CN1CCOCC1)c1ccc2sc3c(-c4cccc5c(=O)cc(N6CC7CCC(C6)O7)oc45)cccc3c2c1 [NU5455]
- inhibition at 1 µM: 0.5%
